Tests used:
Assay in all cases: relative viability (nuclei count vs DMSO), 5 days (fraction); higher = more cells survive
[1] = compound: Cn1cc(-c2cnn3c(N)c(Br)c([C@@H]4CCCNC4)nc23)cn1 + CC(=O)c1c(C)c2cnc(Nc3ccc(N4CCNCC4)cn3)nc2n(C2CCCC2)c1=O [Palbociclib] (partner 0.5 µM)
Method in brief: (§1)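 Relative viability divides the nuclei count in treated wells by that in vehicle wells. Lung cancer cell lines were seeded in 1536-well plates, dosed by pin tool the next day, and fixed and stained after 5 days in one step with final 0.05% Triton X-100, 1% formaldehyde and 1 ug/ml Hoechst. Dosing was a single drug or a fixed anchor-drug dose plus five library-drug doses (not always all listed) in √10 steps, and values are medians of duplicate plates imaged at 4×.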

[2] = compound: Cn1cc(-c2cnn3c(N)c(Br)c([C@@H]4CCCNC4)nc23)cn1 + N=C(N)NC(=N)NCCc1ccccc1 [Phenformin] (partner 250 µM)
Method in brief: as §1

[3] = compound: Cn1cc(-c2cnn3c(N)c(Br)c([C@@H]4CCCNC4)nc23)cn1 + CS(=O)(=O)N1CCN(Cc2cc3nc(-c4cccc5[nH]ncc45)nc(N4CCOCC4)c3s2)CC1 [Pictilisib] (partner 1 µM)
Method in brief: as §1

[4] = compound: Cn1cc(-c2cnn3c(N)c(Br)c([C@@H]4CCCNC4)nc23)cn1 + Nc1ncn([C@H]2C[C@H](O)[C@@H](CO)O2)c(=O)n1 [Decitabine] (partner 2 µM)
Method in brief: as §1

Cell Line | relative viability ([1]; first compound 0.05 µM) | relative viability ([1]; first compound 0.1581 µM) | relative viability ([1]; first compound 0.5 µM) | relative viability ([1]; first compound 1.581 µM) | relative viability ([1]; first compound 5 µM) | relative viability ([2]; first compound 0.05 µM) | relative viability ([2]; first compound 0.1581 µM) | relative viability ([2]; first compound 0.5 µM) | relative viability ([2]; first compound 1.581 µM) | relative viability ([2]; first compound 5 µM) | relative viability ([3]; first compound 0.05 µM) | relative viability ([3]; first compound 0.1581 µM) | relative viability ([3]; first compound 0.5 µM) | relative viability ([3]; first compound 1.581 µM) | relative viability ([3]; first compound 5 µM) | relative viability ([4]; first compound 0.05 µM) | relative viability ([4]; first compound 0.1581 µM) | relative viability ([4]; first compound 0.5 µM) | relative viability ([4]; first compound 1.581 µM) | relative viability ([4]; first compound 5 µM)
HARA | 0.246 | 0.264 | 0.322 | 0.299 | 0.158 | 0.468 | 0.518 | 0.448 | 0.36 | 0.136 | 0.463 | 0.345 | 0.372 | 0.438 | 0.207 | 0.691 | 0.497 | 0.624 | 0.584 | 0.41
HCC-366 | 0.399 | 0.463 | 0.359 | 0.267 | 0.3 | 0.617 | 0.67 | 0.618 | 0.558 | 0.507 | 0.278 | 0.17 | 0.156 | 0.205 | 0.263 | 0.307 | 0.338 | 0.334 | 0.347 | 0.247
NCI-H322M | 0.424 | 0.458 | 0.452 | 0.463 | 0.393 | 0.681 | 0.595 | 0.717 | 0.474 | 0.254 | 0.542 | 0.5 | 0.421 | 0.475 | 0.377 | 0.617 | 0.706 | 0.65 | 0.635 | 0.44
NCI-H2347 | 0.41 | 0.442 | 0.421 | 0.39 | 0.43 | 0.338 | 0.396 | 0.406 | 0.449 | 0.337 | 0.77 | 0.63 | 0.759 | 0.264 | 0.57 | 0.611 | 0.649 | 0.637 | 0.662 | 0.621
NCI-H1975 | 0.654 | 0.58 | 0.476 | 0.449 | 0.27 | 0.44 | 0.435 | 0.443 | 0.338 | 0.356 | 0.308 | 0.264 | 0.308 | 0.222 | 0.248 | 0.433 | 0.458 | 0.767 | 0.388 | 0.396
UMC-11 | 0.346 | 0.316 | 0.312 | 0.304 | 0.29 | 0.337 | 0.309 | 0.32 | 0.305 | 0.274 | 0.926 | 0.782 | 0.709 | 0.397 | 0.431 | 0.692 | 0.536 | 0.689 | 0.492 | 0.373
ABC-1 |  | 1.06 | 0.872 | 0.452 | 0.718 | 0.252 | 0.236 | 0.254 | 0.218 | 0.192 | 0.763 | 0.666 | 0.721 | 0.54 | 0.341 |  | 1.3 | 1.02 | 1.18 | 0.731
A-427 | 0.51 | 0.503 | 0.508 | 0.504 | 0.411 | 0.348 | 0.324 | 0.288 | 0.284 | 0.269 | 0.675 | 0.661 | 0.819 | 0.643 | 0.509 | 0.534 | 0.591 | 0.555 | 0.544 | 0.33
